Laboratory results from patent US5614562A, “Method of treating drug resistant tumor cells using organoselenones” (The University of Sourthern California, priority 1992, dated 1997).
In brackets after ≈: the same amount, converted by molar mass.

Experiments:
L1210/L-PAM = assay: Cytotoxicity, 48-hr exposure of L-PAM resistant L1210/L-PAM leukemia cells; format: cell-based, murine; settings: 48-hr exposure
Text: (§1) Murine L1210 leukemia cells sensitive (L1210/0) and resistant (L1210/L-PAM)to L-phenylalanine mustard were obtained that are adaptable to either in vitro or in vivo passage.
(§2) Broad resistance of the L1210/L-PAM cell line is shown by the approximately 4-fold and 9-fold increases in IC50, compared to L1210/0, for L-PAM and mechlorethamine, respectively (Comparative Examples 3 and 4). […].

[1] = Swain-Scott product competition of nitrogen and oxygen nucleophiles vs NBP (second-order rate constant ratios); format: physicochemical
Text: (§3) The properties of nucleophilicity and electivity can be quantitatively expressed as n and s constants in the Swain-Scott linear free energy relationship. It has been shown that s and n constants of biological alkylating agents and nucleophiles, respectively, can be readily determined with high precision, using 4-(4-nitrobenzyl)pyridine (NBP) as a competitive substrate for alkyl product formation (Spears, C. P. Mol. Pharmacl.19:496-504,1981; Barbin,A.,Bereziat, A., O'Neill, I. K., and Bartsch, H. Chem.-Biol. Interact,73:261-277, 1990; Kang, S. I., and Spears,C. P. J. Med. Chem. 33:1544-1547, 1990). Broad-spectrum antitumor alkylating agents show uniformly high s constants Spears, C. P. Mol.Pharmacol. 19:496-504, 1981; in contrast, mutagenically efficient alkylating agents show low values (Peterson,A. R., Landolph, J. R., Peterson, H., Spears, C. P., and Heidelberger, C. Cancer Res. 41:3095-3099, 1981; Barbin, A., and Bartsch, H. Mut. Res.215:95-106, 1989).
(§4) FIG. 1 is a Swain-Scott plot of the ratio of second-order rate constants, log (ky /knbp) for several model sulfur, nitrogen, and oxygen nucleophiles in their reactions with 2-chloroethyl 4-methoxy-phenyl selenone ("CEMOS"), vs. their published nucleophilicity nCH3 Br constants. Values of n were taken to be 2.72 for acetate (AcO--), 3.3 for ascorbate, 3.6 for pyridine, 4.0 for azide (N3), 3.94 for nitrite, 5.1 for thiol (SH), 6.18 for sulfite (SO3^2-), 6.36 for thiosulfate (S2 O3^2-), and 6.6 for thiophosphate (HPSO3^2-) (derived from the Ogston "Competition Factor") (Ogston, A. G., Holiday, E. R., Philpot, J. S. L., and Stocken, L. A. Trans.Faraday Soc. 44:45-52, 1948).
The slope of the linear regression equation through the 5 nitrogen and oxygen nucleophiles gives a Swain-Scott selectivity constant, s, equal to 1.79, by Eq. A, shown in FIG. 1:
(§5) ^a By competition between S2 O3^2- and NBP log(kS
(§6) /knbp) or N3^- and NBP log(kN /knbp ) at
(§7) 37° C. and 10 h, in 52% aqueous acetone, using initial
(§8) concentrations of 0.0435 mM and 0.0217 mM of 2chloroethyl phenyl selenone
(§9) and nornitrogen mustard, respectively, as described. Values, experimental

L1210/0 = assay: Cytotoxicity, 48-hr exposure of L1210/0 leukemia cells; format: cell-based, murine; settings: Mus musculus, L1210/0; 48-hr exposure; read-out: IC50 L1210/0
Text: as §1, §2

[2] = literature value; cited from earlier work
[3] = Swain-Scott product competition of sulfur nucleophiles vs NBP (second-order rate constant ratios); format: physicochemical
Text: as §3, §4
Extrapolation of Eq. A predicts that the log (ky /knbp) values for the thiol nucleophiles should have ranged from 3 to 5. However, the measured ratios of second-order rate constants were approximately 100-fold lower than this expectation. Also, the linear regression relationship, Eq. B (FIG. 1), for correlation of log (ky /knbp) values vs. nCH3 Br constants gave a sulfur nucleophile selectivity constant, s, equal to 0.84, approximately one-half of the value for reaction with nitrogen and oxygen nucleophiles:
as §5, §6, §7, §8, §9

HCT/VP35 = assay: In vitro cytotoxicity, VP16 resistant HCT/VP35 human colon carcinoma; format: cell-based
Text: | HCT/VP35 human colon, VP16 resistant

[4] = format: physicochemical; settings: FIG. 1 experiments
[5] = test system: P388 murine leukemia ascites cells; assay: In vivo growth inhibition of P388 leukemia ascites in mice; design: species or system murine; BDF1 mice
Protocol: In FIG. 2 and Table II are shown the results of in vivo antitumor testing of 2-chloroethyl aryl selenones against murine P388 Leukemia ascites cells.
Examples 5-8 consisted of the use of 2-chloroethyl 4-methoxy-phenyl selenone to treat the mice. Examples 9-12 were the same as example 5 except 2-chloroethyl phenyl selenone was employed.
The maximally tolerated duration of the highest dose shown in FIG. 2 and Table II, 6 mg/kg/day i.p. of 2-chloroethyl phenyl selenone, was 10 days in a separate experiment. In the experiments shown, i.p. drug was administered for 5 consecutive days, Days 1-5, beginning the day after tumor inoculation (on Day 0).
Mice were inoculated i.p. with 1×10^6 cells of P388 murine leukemia ascites passaged in BDF1 mice, in a volume of 0.1 ml. The selenones were formulated in normal (0.9%, w/v) NaCl for an injection volume of 0.3 ml. Control mice (12 in each group) received i.p. saline alone comparative examples 1 and 2. For each dose level and drug, 6 mice per group were used.
The plateauing of weight increase, at Days 8-9, is consistent with classical Gompertizian tumor growth kinetics (Laird, A. K. Brit. J. Cancer 18:490-502, 1964). The delays observed in the time period before the onset of the exponential phase of weight increase are given in Table II, defined as the Growth Delay.
^a Calculated from Day at which weight first exceeded baseline (Day 0

HCT116 = assay: In vitro cytotoxicity, HCT116 human colon carcinoma; format: cell-based; settings: Homo sapiens, HCT-116; data provided by Bristol-Myers Laboratories
Text: ^b Cell lines: HCT116 human colon (sensitive to VP16 and VM26)

HCT/VM46 = assay: In vitro cytotoxicity, VM26 resistant HCT/VM46 human colon carcinoma; format: cell-based
Text: | HCT/VM46 human colon, VM26 resistant

[6] = IC50 divided by IC50 for HCT116

COc1ccc([Se](=O)(=O)CCCl)cc1 [2-chloroethyl 4-methoxy-phenyl selenone]
Ratio of IC50s (L1210/L-PAM vs L1210/0) (L1210/L-PAM): 0.9 | IC50 (L1210/L-PAM; Mus musculus, L1210/LPAM, read-out: IC50 L1210/L-PAM): 360 nM | Swain-Scott selectivity constant, s (nitrogen and oxygen nucleophiles) ([1]; 5 nitrogen and oxygen nucleophiles, Eq. A, FIG. 1): 1.79 | susceptibility to aqueous hydrolysis ([1]; from intercept of Eq. A): extremely low susceptibility | log (ky/knbp) at n=3.6 ([1]; n=3.6 (pyridine)): nearly zero | intercept of Eq. A, log (ky/knbp) vs. nCH3Br ([1]; nitrogen and oxygen nucleophiles, Eq. A, listed as CEMOS): 6.40 | IC50 (L1210/0): 360 nM | alkylating activity reported (Kang and Spears 1990) [2]: 100% | selectivity within the thiol series [3]: abnormally low | measured ratios of second-order rate constants lower than expectation ([3]; sulfur nucleophiles vs. extrapolation of Eq. A): approximately 100 fold | sulfur nucleophile selectivity constant, s ([3]; sulfur nucleophiles, Eq. B, FIG. 1): 0.84 | IC50 (HCT/VP35; Homo sapiens, HCT/VP35, VP16 resistant, data provided by Bristol-Myers Laboratories): 0.6 µg/mL (≈ 2.13 µM) | ratio of IC50 values HCT/VP35 vs HCT116 (HCT/VP35; [6]): 0.6 | alkylating activity in the FIG. 1 experiments [4]: 103% | Growth delay ([5]; 0.5 mg/kg daily i.p., Days 1-5 (total 2.5 mg/kg), Ex. 5): 0 days | Growth delay ([5]; 1.0 mg/kg daily i.p., Days 1-5 (total 5 mg/kg), Ex. 6, Ex. 9): 0 days | Growth delay ([5]; 2.0 mg/kg daily i.p., Days 1-5 (total 10 mg/kg), Ex. 7, Ex. 10): 3 days | Growth delay ([5]; 4.0 mg/kg daily i.p., Days 1-5 (total 20 mg/kg), Ex. 8, Ex. 11): 7 days | relative antitumor effectiveness ([5]; vs. parent 2-chloroethyl phenyl selenone): less effective than the parent 2-chloroethyl phenyl selenone | IC50 (HCT116): 1.01 µg/mL (≈ 3.59 µM) | IC50 (HCT/VM46; Homo sapiens, VM26 resistant, data provided by Bristol-Myers Laboratories): 0.42 µg/mL (≈ 1.49 µM) | ratio of IC50 values HCT/VM46 vs HCT116 (HCT/VM46; [6]): 0.4
